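Following 48 hours of exposure in 96-well plates, responses at five concentrations were used to interpolate endpoints linearly. GI50 = concentration required for 50% inhibition of growth. TGI denotes the concentration required for complete inhibition of growth.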
Columns and labels:
Experiment in all cases: DTP human tumour cell line panel, 48 h
[1] = tested on: OVCAR-3 ovarian
[2] = tested on: MDA-MB-435
[3] = tested on: MCF7 breast
[4] = tested on: CCRF-CEM leukemia
[5] = tested on: SF-539 CNS
[6] = tested on: MALME-3M melanoma
[7] = tested on: MDA-MB-231 breast
[8] = tested on: HS 578T breast
[9] = tested on: HL-60(TB) leukemia
[10] = tested on: A498 renal
[11] = tested on: HT29 colon
[12] = tested on: EKVX NSCLC
[13] = tested on: CAKI-1 renal
[14] = tested on: HCT-15 colon
[15] = tested on: A549 NSCLC
[16] = tested on: SNB-75 CNS
[17] = tested on: ACHN renal
[18] = tested on: U251 CNS
[19] = tested on: OVCAR-8 ovarian
[20] = tested on: NCI/ADR-RES ovarian
[21] = tested on: SK-MEL-2 melanoma
[22] = tested on: PC-3 prostate
[23] = tested on: HOP-62 NSCLC
[24] = tested on: BT-549 breast
[25] = tested on: HOP-92 NSCLC
[26] = tested on: UO-31 renal
[27] = tested on: M14 melanoma
[28] = tested on: NCI-H226 lung
[29] = tested on: NCI-H522 lung
[30] = tested on: IGROV1 ovarian
[31] = tested on: SN12C renal
[32] = tested on: SK-MEL-5 melanoma
[33] = tested on: OVCAR-5 ovarian
[34] = tested on: NCI-H23 lung
[35] = tested on: UACC-257 melanoma
[36] = tested on: MOLT-4 leukemia
[37] = tested on: SNB-19 CNS
[38] = tested on: SF-268 CNS
[39] = tested on: SW-620 colon
[40] = tested on: 786-0 renal
[41] = tested on: SF-295 CNS
[42] = tested on: SK-MEL-28 melanoma
[43] = tested on: KM12 colon
[44] = tested on: DU-145 prostate
[45] = tested on: NCI-H460 lung
[46] = tested on: UACC-62 melanoma
[47] = tested on: SK-OV-3 ovarian
[48] = tested on: RXF 393 renal
[49] = tested on: OVCAR-4 ovarian
[50] = tested on: COLO 205 colon
[51] = tested on: TK-10 renal
[52] = tested on: HCC-2998 colon
[53] = tested on: K-562 leukemia
[54] = tested on: LOX IMVI melanoma
[55] = tested on: HCT-116 colon
[56] = tested on: RPMI-8226 leukemia

## CC[C@H](C)[C@H](NC(=O)C12CC(NC)(C1)C2)C(=O)N(C)[C@H](C[C@@H](OC(C)=O)c1nc(C(=O)N[C@@H](Cc2ccccc2)C[C@H](C)C(=O)OC)cs1)C(C)C
[1]
  GI50: 55 nM
  TGI: 0.511 µM
[2]
  GI50: 29.7 nM
  TGI: 250 nM
[3]
  GI50: 43.9 nM
  TGI: > 25 µM
[4]
  GI50: 221 nM
  TGI: 2410 nM
[5]
  GI50: 421 nM
  TGI: 1.5 µM
[6]
  GI50: 329 nM
  TGI: > 25 µM
[7]
  GI50: 576 nM
  TGI: > 25 µM
[8]
  GI50: 234 nM
  TGI: 15.1 µM
[9]
  GI50: 55.7 nM
  TGI: 163 nM
[10]
  GI50: 525 nM
  TGI: > 8 µM
[11]
  GI50: 138 nM
  TGI: 1330 nM
[12]
  GI50: 2130 nM
  TGI: > 25 µM
[13]
  GI50: 6.42 µM
  TGI: > 25 µM
[14]
  GI50: 1110 nM
  TGI: > 17.1 µM
[15]
  GI50: 1110 nM
  TGI: > 25 µM
[16]
  GI50: 92.8 nM
  TGI: > 25000 nM
[17]
  GI50: 1390 nM
  TGI: > 25 µM
[18]
  GI50: 434 nM
  TGI: > 25 µM
[19]
  GI50: 633 nM
  TGI: > 25 µM
[20]
  GI50: > 25000 nM
  TGI: > 25 µM
[21]
  GI50: 171 nM
[22]
  GI50: 208 nM
  TGI: > 25 µM
[23]
  GI50: 542 nM
  TGI: > 25 µM
[24]
  GI50: 97.2 nM
  TGI: 1.02 µM
[25]
  GI50: 7.17 µM
  TGI: > 25 µM
[26]
  GI50: 1940 nM
  TGI: > 25 µM
[27]
  GI50: 237 nM
[28]
  GI50: 1710 nM
  TGI: > 25 µM
[29]
  GI50: 34.6 nM
  TGI: 0.368 µM
[30]
  GI50: 181 nM
  TGI: > 25 µM
[31]
  GI50: 585 nM
  TGI: > 25 µM
[32]
  GI50: 103 nM
  TGI: 0.999 µM
[33]
  GI50: 1520 nM
  TGI: > 25 µM
[34]
  GI50: 790 nM
  TGI: > 25 µM
[35]
  GI50: 19.8 µM
  TGI: > 25 µM
[36]
  GI50: 649 nM
  TGI: > 25 µM
[37]
  GI50: 615 nM
  TGI: > 25 µM
[38]
  GI50: 355 nM
  TGI: > 25 µM
[39]
  GI50: 159 nM
  TGI: > 25 µM
[40]
  GI50: 237 nM
  TGI: > 11.7 µM
[41]
  GI50: 401 nM
  TGI: 2170 nM
[42]
  GI50: 2130 nM
  TGI: > 25 µM
[43]
  GI50: 179 nM
  TGI: > 17.6 µM
[44]
  GI50: 199 nM
  TGI: 3.02 µM
[45]
  GI50: 282 nM
  TGI: > 25 µM
[46]
  GI50: 84.2 nM
  TGI: > 25 µM
[47]
  GI50: 786 nM
  TGI: > 25 µM
[48]
  GI50: 160 nM
  TGI: 1.22 µM
[49]
  GI50: 3830 nM
  TGI: > 25 µM
[50]
  GI50: 189 nM
  TGI: 1560 nM
[51]
  GI50: 3700 nM
  TGI: > 25 µM
[52]
  GI50: 349 nM
  TGI: > 25 µM
[53]
  GI50: 53.4 nM
  TGI: > 25 µM
[54]
  GI50: 209 nM
  TGI: > 25 µM
[55]
  GI50: 96.9 nM
[56]
  GI50: 80.6 nM
  TGI: 5.83 µM

## N#C/C(=C\c1ccc2c(c1)OCO2)n1nnc2ccccc21
[1]
  GI50: 357 nM
  TGI: 14.3 µM
[2]
  GI50: 200 nM
  TGI: 501 nM
[3]
  GI50: 417 nM
  TGI: 14.1 µM
[4]
  GI50: 491 nM
  TGI: > 100000 nM
[5]
  GI50: 1480 nM
  TGI: 6.27 µM
[6]
  GI50: 1400 nM
  TGI: 23.4 µM
[7]
  GI50: 1700 nM
  TGI: 7.73 µM
[8]
  GI50: 2530 nM
  TGI: 9.36 µM
[9]
  GI50: 330 nM
  TGI: > 100000 nM
[10]
  GI50: 1760 nM
  TGI: 5.28 µM
[11]
  GI50: 383 nM
  TGI: > 100000 nM
[12]
  GI50: 1540 nM
  TGI: 16.3 µM
[13]
  GI50: 0.518 µM
  TGI: 13.1 µM
[14]
  GI50: 395 nM
  TGI: 13.8 µM
[15]
  GI50: 991 nM
  TGI: 48.1 µM
[16]
  GI50: 179 nM
  TGI: 1510 nM
[17]
  GI50: 784 nM
  TGI: 8.53 µM
[18]
  GI50: 1540 nM
  TGI: 21.1 µM
[19]
  GI50: 1760 nM
  TGI: > 100 µM
[20]
  GI50: 405 nM
  TGI: 17.2 µM
[21]
  GI50: 1230 nM
  TGI: 26.9 µM
[22]
  GI50: 1350 nM
  TGI: 24.3 µM
[23]
  GI50: 2410 nM
  TGI: 14.9 µM
[24]
  GI50: 938 nM
  TGI: 15 µM
[25]
  GI50: 0.81 µM
  TGI: 3.31 µM
[26]
  GI50: 1760 nM
  TGI: 12.7 µM
[27]
  GI50: 424 nM
  TGI: 23.5 µM
[28]
  GI50: 2210 nM
  TGI: 16 µM
[29]
  GI50: 270 nM
  TGI: 15.2 µM
[30]
  GI50: 716 nM
  TGI: 11.8 µM
[31]
  GI50: 1320 nM
  TGI: 14.8 µM
[32]
  GI50: 1620 nM
  TGI: 12.6 µM
[33]
  GI50: 2220 nM
  TGI: 7.13 µM
[34]
  GI50: 3600 nM
  TGI: 22.6 µM
[35]
  GI50: 6.68 µM
  TGI: 62.4 µM
[36]
  GI50: 2420 nM
  TGI: > 100 µM
[37]
  GI50: 1420 nM
  TGI: 13.3 µM
[38]
  GI50: 3220 nM
  TGI: 20.5 µM
[39]
  GI50: 489 nM
  TGI: > 100 µM
[40]
  GI50: 2010 nM
  TGI: 12.9 µM
[42]
  GI50: 1240 nM
  TGI: 17.6 µM
[43]
  GI50: 797 nM
  TGI: > 100 µM
[44]
  GI50: 1900 nM
  TGI: 13.1 µM
[45]
  GI50: 2860 nM
  TGI: > 100 µM
[46]
  GI50: 450 nM
  TGI: 18.5 µM
[47]
  GI50: 2610 nM
  TGI: 17 µM
[48]
  GI50: 986 nM
  TGI: 5.31 µM
[49]
  GI50: 1660 nM
  TGI: 20.3 µM
[51]
  GI50: 2200 nM
  TGI: 8.55 µM
[52]
  GI50: 1860 nM
  TGI: 7.23 µM
[53]
  GI50: 361 nM
  TGI: > 100 µM
[54]
  GI50: 990 nM
  TGI: 25 µM
[55]
  GI50: 439 nM
  TGI: 17.4 µM
[56]
  GI50: 2190 nM
  TGI: > 100 µM
